According to the NIST ThermoML archive (doi:10.1021/je0302147):
Numbers after ± are expanded uncertainties.

Legend:
[1] = 298.15 K, 101.33 kPa, Liquid; for speed of sound: Sing-around technique in a fixed-path interferometer
[2] = refractive index (Na D-line) (dimensionless); details: 298.15 K, 101.33 kPa, Liquid

Row | speed of sound [1] | mass density [1] | refractive index ([2]; Standard Abbe refractometry) | SMILES | mass density ([1]; Vibrating tube method) | refractive index [2]
1 | 1096 ± 2 m/s | – | – | CCOC(C)(C)CC [1,1-dimethylpropyl ethyl ether] | 760.5 kg/m3 | 1.38857
2 | 1382 ± 4 m/s | 1007 ± 1.6 kg/m3 | 1.5058 ± 0.00069 | CCCCCCCC[n+]1ccn(C)c1.[Cl-] [1-methyl-3-octylimidazolium chloride] | – | –

Row | SMILES | speed of sound [1] | mass density [1] | refractive index ([2]; Standard Abbe refractometry) | mass density ([1]; Vibrating tube method) | refractive index [2]
3 | CCO [ethanol] | 1143 ± 2 m/s | – | – | 785.22 kg/m3 | 1.3592
